Assay results taken from patent publication US8415469B2, “Compounds and methods for kinase modulation, and indications therefor” (Plexxikon Inc., priority 2005, dated 2013).
pIC50: −log10 of the molar value.

Legend:
Assay type in all cases: biochemical
Ret = biological target: T1, Ret (Homo sapiens, UniProt P07949); experiment: AlphaScreen kinase assay, Ret; conditions: read-out: IC50, activity toward kinase Ret
T1 construct: P1378.pET-SF BI-PTP RET H661-R1012 HIS; made in house
T1 sequence (P07949 with tags, fused parts or gaps): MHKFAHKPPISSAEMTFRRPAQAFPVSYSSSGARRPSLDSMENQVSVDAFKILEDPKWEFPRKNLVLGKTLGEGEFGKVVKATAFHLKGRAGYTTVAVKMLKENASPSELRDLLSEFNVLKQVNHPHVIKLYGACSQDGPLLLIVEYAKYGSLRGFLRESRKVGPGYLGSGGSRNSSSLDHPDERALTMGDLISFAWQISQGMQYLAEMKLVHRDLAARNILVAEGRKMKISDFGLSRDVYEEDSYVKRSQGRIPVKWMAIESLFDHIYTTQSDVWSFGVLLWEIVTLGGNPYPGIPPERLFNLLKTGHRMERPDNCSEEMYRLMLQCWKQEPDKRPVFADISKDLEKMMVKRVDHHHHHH

Kit = biological target: T2, Kit (Homo sapiens, UniProt P10721); experiment: AlphaScreen kinase assay, Kit; conditions: read-out: IC50, activity toward kinase Kit
T2 construct: P1332.N6 BI PTP KIT M552-K948-X COD; His6 (N); made in house; host or cells: E. coli (PTP1B co-expressed)

B-Raf = biological target: T3, B-Raf (Homo sapiens, UniProt P15056); experiment: AlphaScreen kinase assay, B-Raf; conditions: read-out: IC50, activity toward kinase B-Raf
T3 construct: purchased Upstate Biotechnology

B-Raf V600E = biological target: T4, B-Raf V600E (Homo sapiens, UniProt P15056, V600E); experiment: AlphaScreen kinase assay, B-Raf V600E; conditions: read-out: IC50, activity toward kinase B-Raf V600E
T4 construct: P4254. pFastBacBD-CDC37 BRAF D437-K722-X, V600E; His6 with pFastBac HT leader (TEV site) (N); made in house; host or cells: Sf9 (baculovirus; chaperone CDC37 co-expressed)

FGFR1 = biological target: T5, FGFR1 (Homo sapiens, UniProt P11362, C488A/C584S); experiment: AlphaScreen kinase assay, FGFR1; conditions: read-out: IC50, activity toward kinase FGFR
T5 construct: P1351.pET N6 BI-PTP FGFR A458-E765-X C488A, C584S; made in house; host or cells: E. coli (PTP1B co-expressed)

Fak = biological target: T6, Fak (Homo sapiens, UniProt Q05397); experiment: AlphaScreen kinase assay, Fak; conditions: read-out: IC50, activity toward kinase Fak
T6 construct: P1358.pFastBacHtb FAK S411-Q686-X; His6 with pFastBacHTb leader (TEV site) (N); made in house; host or cells: Sf9 (baculovirus)

Kdr = biological target: T7, Kdr (Homo sapiens, UniProt P35968); experiment: Z'-Lyte FRET kinase assay (Invitrogen), Kdr; conditions: read-out: IC50, activity toward kinase Kdr
T7 construct: purchased Invitrogen (assay run by Invitrogen)

Fms = biological target: T8, Fms (Homo sapiens, UniProt P07333); experiment: AlphaScreen kinase assay, Fms; conditions: read-out: IC50, activity toward kinase Fms
T8 construct: purchased Upstate Biotechnology

Src = biological target: T9, Src (Homo sapiens, UniProt P12931); experiment: AlphaScreen kinase assay, Src; conditions: read-out: IC50, activity toward kinase Src
T9 construct: P1144. pET-N6 BI-PTP SRC V86-L536-X; made in house

Jnk1 = biological target: T10, Jnk1 (Homo sapiens, UniProt P45983); experiment: AlphaScreen kinase assay, Jnk1; conditions: read-out: IC50, activity toward kinase Jnk1
T10 construct: purchased Upstate Biotechnology

Jnk3 = biological target: T11, Jnk3 (Homo sapiens, UniProt P53779); experiment: AlphaScreen kinase assay, Jnk3; conditions: read-out: IC50, activity toward kinase Jnk3
T11 construct: purchased Upstate Biotechnology

c-Raf-1 = biological target: T12, c-Raf-1 (Homo sapiens, UniProt P04049); experiment: AlphaScreen kinase assay, c-Raf-1; conditions: read-out: IC50, activity toward kinase c-Raf-1
T12 construct: purchased Upstate Biotechnology

Flt1 = biological target: T13, Flt1 (Homo sapiens, UniProt P17948); experiment: AlphaScreen kinase assay, Flt1; conditions: read-out: IC50, activity toward kinase Flt1
T13 construct: P1826.pETN6 BI-PTP FLT1 M799-D1165-X WT; His6 (N); made in house; host or cells: E. coli (PTP1B co-expressed)
T13 sequence (P17948 with tags, fused parts or gaps): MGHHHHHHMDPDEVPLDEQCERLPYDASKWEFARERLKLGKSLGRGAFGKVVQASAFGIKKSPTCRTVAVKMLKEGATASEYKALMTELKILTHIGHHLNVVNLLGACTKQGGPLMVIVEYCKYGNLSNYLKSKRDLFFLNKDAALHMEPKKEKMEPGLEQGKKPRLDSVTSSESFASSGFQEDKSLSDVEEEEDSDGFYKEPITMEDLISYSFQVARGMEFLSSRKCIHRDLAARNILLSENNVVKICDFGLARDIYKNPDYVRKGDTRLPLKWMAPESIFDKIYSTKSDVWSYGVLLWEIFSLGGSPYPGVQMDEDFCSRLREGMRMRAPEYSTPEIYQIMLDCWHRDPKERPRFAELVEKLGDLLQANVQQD

Measured: pIC50

T10 sequence (P45983 whole entry): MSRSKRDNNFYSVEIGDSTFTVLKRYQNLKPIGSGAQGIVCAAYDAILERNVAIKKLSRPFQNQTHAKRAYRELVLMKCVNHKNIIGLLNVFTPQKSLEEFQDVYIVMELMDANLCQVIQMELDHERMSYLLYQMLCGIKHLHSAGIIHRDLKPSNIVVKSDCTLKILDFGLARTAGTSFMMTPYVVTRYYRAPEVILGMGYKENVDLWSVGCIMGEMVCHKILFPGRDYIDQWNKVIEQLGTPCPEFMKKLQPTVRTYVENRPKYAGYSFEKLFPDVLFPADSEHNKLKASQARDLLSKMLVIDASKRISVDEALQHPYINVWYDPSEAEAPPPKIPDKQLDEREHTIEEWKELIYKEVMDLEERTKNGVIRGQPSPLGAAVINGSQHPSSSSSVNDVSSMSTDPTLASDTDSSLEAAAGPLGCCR
T3 sequence (P15056 whole entry): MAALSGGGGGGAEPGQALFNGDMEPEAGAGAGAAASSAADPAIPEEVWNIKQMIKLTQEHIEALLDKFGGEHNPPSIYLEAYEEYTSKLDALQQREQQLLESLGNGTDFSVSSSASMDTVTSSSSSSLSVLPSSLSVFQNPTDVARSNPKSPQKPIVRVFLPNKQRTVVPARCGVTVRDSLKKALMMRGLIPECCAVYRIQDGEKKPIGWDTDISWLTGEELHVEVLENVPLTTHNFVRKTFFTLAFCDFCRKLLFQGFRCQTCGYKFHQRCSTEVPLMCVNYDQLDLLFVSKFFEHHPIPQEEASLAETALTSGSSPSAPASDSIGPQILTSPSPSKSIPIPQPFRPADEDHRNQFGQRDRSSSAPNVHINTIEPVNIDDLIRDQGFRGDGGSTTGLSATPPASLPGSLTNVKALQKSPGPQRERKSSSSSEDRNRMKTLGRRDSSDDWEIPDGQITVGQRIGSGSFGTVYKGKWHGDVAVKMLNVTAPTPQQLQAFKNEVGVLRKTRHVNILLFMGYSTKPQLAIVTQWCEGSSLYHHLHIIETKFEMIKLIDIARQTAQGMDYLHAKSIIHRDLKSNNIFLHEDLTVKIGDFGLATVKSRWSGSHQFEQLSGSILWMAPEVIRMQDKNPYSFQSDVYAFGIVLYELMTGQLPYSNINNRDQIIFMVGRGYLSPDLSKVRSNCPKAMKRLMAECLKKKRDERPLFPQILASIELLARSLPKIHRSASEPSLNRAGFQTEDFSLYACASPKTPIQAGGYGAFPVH
T11 sequence (P53779 whole entry): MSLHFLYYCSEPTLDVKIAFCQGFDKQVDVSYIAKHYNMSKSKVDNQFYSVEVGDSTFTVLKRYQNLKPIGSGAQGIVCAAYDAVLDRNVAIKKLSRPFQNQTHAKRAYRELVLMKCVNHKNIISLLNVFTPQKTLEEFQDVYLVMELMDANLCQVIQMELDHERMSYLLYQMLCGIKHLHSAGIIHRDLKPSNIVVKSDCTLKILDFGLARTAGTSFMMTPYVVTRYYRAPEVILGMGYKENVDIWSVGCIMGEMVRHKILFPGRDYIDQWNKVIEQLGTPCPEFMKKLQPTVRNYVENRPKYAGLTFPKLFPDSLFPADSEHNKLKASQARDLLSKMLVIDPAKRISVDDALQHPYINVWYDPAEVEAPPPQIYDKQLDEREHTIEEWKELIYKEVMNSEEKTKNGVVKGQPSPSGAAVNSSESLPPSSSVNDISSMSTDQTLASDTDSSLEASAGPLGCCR
T5 sequence (P11362 458-765 C488A/C584S): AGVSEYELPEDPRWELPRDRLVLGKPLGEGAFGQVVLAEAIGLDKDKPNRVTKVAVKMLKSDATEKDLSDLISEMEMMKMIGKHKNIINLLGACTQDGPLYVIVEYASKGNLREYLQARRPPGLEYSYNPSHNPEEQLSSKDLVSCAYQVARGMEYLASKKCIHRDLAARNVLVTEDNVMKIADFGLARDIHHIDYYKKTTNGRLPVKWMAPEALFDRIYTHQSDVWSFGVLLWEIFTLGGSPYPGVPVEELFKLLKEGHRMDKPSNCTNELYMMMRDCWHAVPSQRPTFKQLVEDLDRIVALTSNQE
T2 sequence (P10721 with tags, fused parts or gaps): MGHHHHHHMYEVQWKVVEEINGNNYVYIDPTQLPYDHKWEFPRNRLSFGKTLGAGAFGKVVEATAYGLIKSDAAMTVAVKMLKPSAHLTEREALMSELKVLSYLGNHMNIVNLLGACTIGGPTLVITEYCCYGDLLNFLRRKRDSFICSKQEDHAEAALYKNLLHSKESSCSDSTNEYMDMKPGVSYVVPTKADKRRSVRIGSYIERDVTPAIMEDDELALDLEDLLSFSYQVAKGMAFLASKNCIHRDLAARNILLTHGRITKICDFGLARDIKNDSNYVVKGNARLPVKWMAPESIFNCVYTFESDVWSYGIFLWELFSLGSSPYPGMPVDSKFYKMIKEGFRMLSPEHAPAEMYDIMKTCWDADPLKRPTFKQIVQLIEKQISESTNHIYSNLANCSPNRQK
T6 sequence (Q05397 411-686): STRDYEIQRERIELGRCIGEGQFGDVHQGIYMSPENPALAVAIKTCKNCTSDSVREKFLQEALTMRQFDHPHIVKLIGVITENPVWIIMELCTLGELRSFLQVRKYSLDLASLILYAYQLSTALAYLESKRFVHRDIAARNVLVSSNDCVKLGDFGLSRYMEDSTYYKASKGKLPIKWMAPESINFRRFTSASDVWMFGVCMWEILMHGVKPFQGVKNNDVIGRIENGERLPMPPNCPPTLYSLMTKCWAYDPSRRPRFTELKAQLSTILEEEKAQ
T4 sequence (P15056 with tags, fused parts or gaps V600E): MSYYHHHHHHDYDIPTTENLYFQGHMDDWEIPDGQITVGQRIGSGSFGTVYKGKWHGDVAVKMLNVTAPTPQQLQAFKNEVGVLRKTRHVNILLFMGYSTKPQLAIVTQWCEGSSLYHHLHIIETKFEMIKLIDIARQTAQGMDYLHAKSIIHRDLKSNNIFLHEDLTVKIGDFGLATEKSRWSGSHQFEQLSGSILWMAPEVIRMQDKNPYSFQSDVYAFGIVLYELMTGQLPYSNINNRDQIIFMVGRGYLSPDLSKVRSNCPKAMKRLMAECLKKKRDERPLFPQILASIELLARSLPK
T9 sequence (P12931 with tags, fused parts or gaps): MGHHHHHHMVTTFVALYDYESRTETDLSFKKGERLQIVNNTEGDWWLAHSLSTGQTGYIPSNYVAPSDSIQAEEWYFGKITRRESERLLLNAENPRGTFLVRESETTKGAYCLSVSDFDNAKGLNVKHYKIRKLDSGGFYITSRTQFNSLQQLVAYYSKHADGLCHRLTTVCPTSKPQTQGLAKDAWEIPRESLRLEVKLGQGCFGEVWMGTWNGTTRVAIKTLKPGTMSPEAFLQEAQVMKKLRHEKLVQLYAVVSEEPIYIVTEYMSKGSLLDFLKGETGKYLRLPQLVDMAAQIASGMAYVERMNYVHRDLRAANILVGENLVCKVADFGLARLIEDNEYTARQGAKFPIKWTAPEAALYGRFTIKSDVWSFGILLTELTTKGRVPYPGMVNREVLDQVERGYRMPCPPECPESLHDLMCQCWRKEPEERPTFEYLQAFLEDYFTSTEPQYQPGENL
T8 sequence (P07333 20-972): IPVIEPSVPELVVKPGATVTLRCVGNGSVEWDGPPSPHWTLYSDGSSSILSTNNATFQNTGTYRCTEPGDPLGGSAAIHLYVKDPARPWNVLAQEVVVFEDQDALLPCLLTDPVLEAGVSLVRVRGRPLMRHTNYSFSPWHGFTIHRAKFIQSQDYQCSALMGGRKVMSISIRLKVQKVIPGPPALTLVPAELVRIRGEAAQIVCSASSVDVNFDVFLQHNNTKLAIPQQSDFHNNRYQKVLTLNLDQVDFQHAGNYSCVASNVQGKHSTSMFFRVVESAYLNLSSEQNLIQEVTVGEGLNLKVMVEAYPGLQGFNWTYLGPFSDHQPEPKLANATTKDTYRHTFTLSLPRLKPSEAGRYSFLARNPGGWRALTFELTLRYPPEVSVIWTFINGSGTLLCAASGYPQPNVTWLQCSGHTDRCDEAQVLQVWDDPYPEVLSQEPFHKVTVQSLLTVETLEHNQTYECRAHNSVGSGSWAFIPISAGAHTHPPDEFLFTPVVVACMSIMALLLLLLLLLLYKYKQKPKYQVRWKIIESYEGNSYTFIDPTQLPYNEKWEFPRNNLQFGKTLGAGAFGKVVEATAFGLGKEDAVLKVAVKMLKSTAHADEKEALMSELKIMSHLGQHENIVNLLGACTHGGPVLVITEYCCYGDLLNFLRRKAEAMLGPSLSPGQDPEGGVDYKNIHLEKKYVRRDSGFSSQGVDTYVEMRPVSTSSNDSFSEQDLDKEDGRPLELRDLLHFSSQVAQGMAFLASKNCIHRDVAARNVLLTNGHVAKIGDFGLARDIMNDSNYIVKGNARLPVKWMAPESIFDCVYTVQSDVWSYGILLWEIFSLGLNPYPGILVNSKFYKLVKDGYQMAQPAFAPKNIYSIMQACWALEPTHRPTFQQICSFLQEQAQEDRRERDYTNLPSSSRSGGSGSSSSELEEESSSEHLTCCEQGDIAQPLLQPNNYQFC

O=C(c1ccccc1F)c1c[nH]c2ncc(Br)cc12 [Compound P-0293]
not listed: Src | Jnk1 | Jnk3 | c-Raf-1 | Flt1
≥ 5.00: all other assays above

CCCCS(=O)(=O)Nc1ccc(F)c(C(=O)c2c[nH]c3ncc(Br)cc23)c1F [Compound P-1263, Butane-1-sulfonic acid [3-(5-bromo-1H-pyrrolo[2,3-b]pyridine-3-carbonyl)-2,4-difluoro-phenyl]-amide]
≥ 5.00: Kit | B-Raf | B-Raf V600E | Src | FGFR1 | Fak | Fms

CCCCS(=O)(=O)Nc1ccc(F)c(C(=O)c2c[nH]c3ncc(OC)cc23)c1F [Compound P-1264, Butane-1-sulfonic acid [2,4-difluoro-3-(5-methoxy-1H-pyrrolo[2,3-b]pyridine-3-carbonyl)-phenyl]-amide]
≥ 5.00: Kit | B-Raf | B-Raf V600E | Src | FGFR1 | Fak | Fms

COc1cccc(Cc2c[nH]c3ncc(-c4cccc(NS(C)(=O)=O)c4)cc23)c1F [Compound P-1329, N-{3-[3-(2-Fluoro-3-methoxy-benzyl)-1H-pyrrolo[2,3-b]pyridin-5-yl]-phenyl}-methanesulfonamide]
≥ 5.00: Kit | B-Raf V600E | FGFR1 | Fak | Fms

COc1ccc(Cc2c[nH]c3ncc(-c4cccc(C(N)=O)c4)cc23)c(F)c1 [Compound P-1341]
≥ 5.00: Kit | B-Raf | B-Raf V600E | FGFR1 | Fak | Fms

c1cc2ccc(Nc3ccc(N4CCCCC4)cc3)nc2[nH]1 [Compound P-1359, (4-Piperidin-1-yl-phenyl)-(1H-pyrrolo[2,3-b]pyridin-6-yl)-amine]
≥ 5.00: Jnk1 | Fak | Jnk3

OCCOc1ccc(F)c(Cc2c[nH]c3ncc(Br)cc23)c1F [Compound P-1392, 2-[3-(5-Bromo-1H-pyrrolo[2,3-b]pyridin-3-ylmethyl)-2,4-difluoro-phenoxy]-ethanol]
≥ 5.00: Kit | B-Raf V600E | FGFR1 | Fak | Fms

CN(c1ccc(F)c(C(O)c2c[nH]c3ncc(-c4cccnc4)cc23)c1F)S(=O)(=O)c1ccc(C(F)(F)F)cc1 (stereo not shown) [Compound P-1400]
≥ 5.00: Kit | Jnk1 | Fak | Jnk3 | Fms

O=[N+]([O-])c1cccc(Cc2c[nH]c3ncc(-c4cccnc4)cc23)c1 [Compound P-1402, 3-(3-nitro-benzyl)-5-pyridin-3-yl-1H-pyrrolo[2,3-b]pyridine]
≥ 5.00: Kit | B-Raf V600E | Jnk1 | FGFR1 | Fak | Fms

COCCOc1ccc(F)c(C(O)c2c[nH]c3ncc(Br)cc23)c1F (stereo not shown) [Compound P-1452]
≥ 5.00: Kit | B-Raf | B-Raf V600E | FGFR1 | Fak | c-Raf-1 | Fms

COCCOc1ccc(F)c(C(=O)c2c[nH]c3ncc(-c4cccnc4)cc23)c1F [Compound P-1456, [2,6-Difluoro-3-(2-methoxy-ethoxy)-phenyl]-(5-pyridin-3-yl-1H-pyrrolo[2,3-b]pyridin-3-yl)-methanone]
not listed: Ret | Kdr | Src | Jnk3 | Flt1
≥ 5.00: all other assays above

COCCOc1ccc(F)c(Cc2c[nH]c3ncc(-c4cccnc4)cc23)c1F [Compound P-1458]
not listed: Ret | Kdr | Src | Flt1
≥ 5.00: all other assays above

Brc1cnc2[nH]cc(Cc3ccc4c(c3)OCCO4)c2c1 [Compound P-1474, 5-Bromo-3-(2,3-dihydro-benzo[1,4]dioxin-6-ylmethyl)-1H-pyrrolo[2,3-b]pyridine]
≥ 5.00: Kit | B-Raf V600E | FGFR1 | Fak | Fms

Clc1cccc(Cl)c1Cc1c[nH]c2ncc(-c3cccnc3)cc12 [Compound P-1478, 3-(2,6-Dichloro-benzyl)-5-pyridin-3-yl-1H-pyrrolo[2,3-b]pyridine]
≥ 5.00: Kit | B-Raf V600E | Src | FGFR1 | Fak | Fms

FC(F)(F)Oc1ccc(Nc2c[nH]c3ncccc23)cc1 [Compound P-1492, (1H-Pyrrolo[2,3-b]pyridin-3-yl)-(4-trifluoromethoxy-phenyl)-amine]
≥ 5.00: Fak | Flt1 | Fms

c1ccc(Oc2ccc(Nc3c[nH]c4ncccc34)cc2)cc1 [Compound P-1495, (4-Phenoxy-phenyl)-(1H-pyrrolo[2,3-b]pyridin-3-yl)-amine]
≥ 5.00: Kit | B-Raf V600E | Src | Fak | Flt1 | Fms

Clc1cc(Cl)cc(Nc2c[nH]c3ncccc23)c1 [Compound P-1502, (3,5-Dichloro-phenyl)-(1H-pyrrolo[2,3-b]pyridin-3-yl)-amine]
≥ 5.00: Kit | Fak | Flt1 | Fms
